# Measurements: patent US20230013402A1, “REGENERATING FUNCTIONS AND PHENOTYPES OF CONNECTIVE TISSUE THROUGH NPAS2 SUPPRESSION” (The Regents of the University of California, priority 2019, published 2023)
# Entries after “also recorded” stand apart in the source; their conditions may differ.
# Experiments:
# [1] = tested on: bone marrow stromal cells (BMSC); assay: In vitro mineralization / osteogenic differentiation of BMSC (MSC) in osteogenic medium; format: cell-based, mouse
# Source text: (§1) FIGS. 7A-7B show the effect of Reserpine on bone marrow stromal cells osteogenic differentiation. […] Bars: Tukey analysis with p<0.05. […] The expression values were normalized with day 0 RNA.
# (§2) FIGS. 11A-11D(b) show results of in vitro biological assays of Npas2 suppressing compound Dwn1 (Reserpine).
# (§3) Reserpine was selected and its effect on bone marrow stromal cells (BMSC) was characterized for osteogenic differentiation.
# To evaluate the mechanism of action involving Npas2, Reserpine was applied to WT, Npas2+/− and Npas2−/− mouse BMSC and evaluated for in vitro osteogenic differentiation.
# (§4) The small molecule compound that scored the best combined z score in Example 2, Dwn1 (Reserpine) was selected for in vitro biological assays. […] BMP-2 has been used as a gold standard for accelerated osteogenic differentiation of MSC (48, 49). […] The expression of core clock gene Bmal1 was not affected by Dwn1 (FIG. 11C). Dwn1 increased in vitro mineralization of Npas2+/− MSC, but not of Npas2−/− MSC (FIG. 11D), implying that the effect of Dwn1 (Reserpine) was facilitated primarily by Npas2 suppression.
# [2] = tested on: osteocalcin (Ocn), osteopontin (Opn), Bmal1 expression; assay: Real time RT-PCR of osteogenic and clock genes in BMSC (MSC); format: cell-based, mouse
# Source text: as §1, §2, §3, §4
smiles,measurement,setting,value
COC(=O)[C@H]1[C@H]2C[C@@H]3c4[nH]c5cc(OC)ccc5c4CCN3C[C@H]2C[C@@H](OC(=O)c2cc(OC)c(OC)c(OC)c2)[C@@H]1OC [Reserpine],In vitro mineralization compared with BMP-2 supplementation,[1]; Dwn1 1 μM vs BMP-2 100 ng/ml,equivalent to BMP-2 (100 ng/ml) supplementation
same,In vitro mineralization / osteogenic differentiation,[1]; Npas2+/− BMSC/MSC,reproducibly observed
same,In vitro mineralization / osteogenic differentiation,"[1]; Npas2+/− BMSC/MSC, listed as Dwn1",responded; also recorded: increased
same,In vitro mineralization / osteogenic differentiation,[1]; Npas2−/− BMSC/MSC,did not modulate
same,In vitro mineralization / osteogenic differentiation,"[1]; wild type BMSC/MSC, osteogenic medium, alizarin red",increased alizarin red positive in vitro mineralization; also recorded: dose-dependently accelerated in vitro mineralization; also recorded: reproducibly observed
same,In vitro mineralization / osteogenic differentiation,"[1]; wild type BMSC/MSC, osteogenic medium, alizarin red, listed as Dwn1",increased dose-dependently; also recorded: dose dependently increased; also recorded: dose-dependently increased
same,Expression of core clock gene Bmal1,"[2]; MSC, listed as Dwn1",did not affect; also recorded: not affected
same,Expression of osteocalcin (Ocn),[2]; day 21,significantly increased
same,Expression of osteopontin (Opn),[2]; day 21,mildly affected
same,Expression of osteocalcin (Ocn),"[2]; day 21, listed as Dwn1",increased as early as D21; also recorded: accelerated expression
